Measured values taken from PubChem BioAssay (NCI).
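A five-concentration, 48-hour dose response in 96-well plates underlies each endpoint, interpolated linearly between surrounding concentrations. TGI marks complete inhibition of growth.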

Legend:
Test in all cases: DTP human tumour cell line panel, 48 h
[1] = tested on: TK-10 renal
[2] = tested on: SF-268 CNS
[3] = tested on: K-562 leukemia
[4] = tested on: SW-620 colon
[5] = tested on: HT29 colon
[6] = tested on: SF-539 CNS
[7] = tested on: LOX IMVI melanoma
[8] = tested on: U251 CNS
[9] = tested on: NCI-H23 lung
[10] = tested on: A549 NSCLC
[11] = tested on: OVCAR-4 ovarian
[12] = tested on: SNB-75 CNS
[13] = tested on: DU-145 prostate
[14] = tested on: CCRF-CEM leukemia
[15] = tested on: SK-MEL-5 melanoma
[16] = tested on: COLO 205 colon
[17] = tested on: NCI-H522 lung
[18] = tested on: KM12 colon
[19] = tested on: SK-MEL-2 melanoma
[20] = tested on: UACC-62 melanoma

Measured: TGI

CCOC(=O)C(NC(C)=O)(Nc1ccc(F)cc1)C(F)(F)F (stereo not given)
> 100 µM: all assays above
